Laboratory results reported in publication PMC6976303 (Biochemistry, 2019).

Target: T1, human ABHD14B (Homo sapiens, UniProt Q96IU4)
T1 sequence (Q96IU4 1-210): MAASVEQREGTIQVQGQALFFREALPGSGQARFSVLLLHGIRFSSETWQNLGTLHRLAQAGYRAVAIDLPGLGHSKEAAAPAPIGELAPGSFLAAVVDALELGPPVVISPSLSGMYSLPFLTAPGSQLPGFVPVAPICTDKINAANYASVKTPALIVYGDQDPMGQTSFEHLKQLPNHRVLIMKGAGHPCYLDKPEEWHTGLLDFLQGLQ
Assay: thermal shift assay, Sypro-Orange
Type: binding
Conditions: 10 mM ligand, 10 μM enzyme, 10 mM Tris pH 8

| leftward (lower temperature) thermal shift | Compound |
| --- | --- |
| ~ 2 °C | CC(=O)SCCNC(=O)CCNC(=O)[C@H](O)C(C)(C)COP(=O)(O)OP(=O)(O)OC[C@H]1O[C@@H](n2cnc3c(N)ncnc32)[C@H](O)[C@@H]1OP(=O)(O)O [acetyl-CoA] |
| ~ 2 °C | CC(C)(COP(=O)(O)OP(=O)(O)OC[C@H]1O[C@@H](n2cnc3c(N)ncnc32)[C@H](O)[C@@H]1OP(=O)(O)O)[C@@H](O)C(=O)NCCC(=O)NCCS [CoA] |
